Tests used:
Format in all cases: in vivo
Echinochloa crus-galli [1] = assay: Post-emergence herbicidal effect; conditions: 320 g/ha, visual scoring after about 3 weeks
Experimental: (§1) Seeds of monocotyledonous and dicotyledonous weed and crop plants are laid out in sandy loam in wood-fiber pots, covered with soil and cultivated in a greenhouse under good growth conditions. 2 to 3 weeks after sowing, the test plants are treated at the one-leaf stage. The compounds of the invention, formulated in the form of wettable powders (WP) or as emulsion concentrates (EC), are then sprayed onto the green parts of the plants as aqueous suspension or emulsion at a water application rate equating to 600 to 800 L/ha with addition of 0.2% wetting agent. After the trial plants have been left to stand in a greenhouse under optimal growth conditions for about 3 weeks, the efficacy of the formulations is scored visually in comparison to untreated controls (herbicidal action in percent (%): 100% efficacy=the plants have died, 0% efficacy=like control plants).

[2] = tested on: Triticum aestivum (spring); assay: Pre-emergence herbicidal effect and crop plant compatibility; conditions: 3 weeks
Text: (§2) Seeds of monocotyledonous and dicotyledonous weed plants and crop plants are laid out in wood-fiber pots in sandy loam and covered with soil. The compounds of the invention, formulated in the form of wettable powders (WP) or as emulsion concentrates (EC), are then applied to the surface of the covering soil as aqueous suspension or emulsion at a water application rate equating to 600 to 800 L/ha with addition of 0.2% wetting agent.
(§3) After the treatment, the pots are placed in a greenhouse and kept under good growth conditions for the trial plants. The damage to the trial plants is scored visually after a trial duration of 3 weeks by comparison with untreated controls (herbicidal activity in percent (%): 100% efficacy=the plants have died, 0% efficacy=like control plants).

Zea mays [3] = assay: as above; conditions: 3 weeks
Text: as §2, §3

Oryza sativa [4] = assay: as above; conditions: 3 weeks
Text: as §2, §3

[5] = tested on: Triticum aestivum (spring); assay: Post-emergence herbicidal effect and crop plant compatibility; conditions: visual scoring after about 3 weeks
Experimental: as §1

Zea mays [6] = assay: as above; conditions: visual scoring after about 3 weeks
Experimental: as §1

Oryza sativa [7] = assay: as above; conditions: visual scoring after about 3 weeks
Experimental: as §1

Matricaria inodora = assay: Pre-emergence herbicidal effect; conditions: 3 weeks
Text: as §2, §3

Polygonum convolvulus = assay: Pre-emergence herbicidal effect; conditions: 320 g/ha, 3 weeks
Text: as §2, §3

Viola tricolor = assay: Pre-emergence herbicidal effect; conditions: 3 weeks
Text: as §2, §3

Stellaria media = assay: Pre-emergence herbicidal effect; conditions: 3 weeks
Text: as §2, §3

Lolium multiflorum = assay: Pre-emergence herbicidal effect; conditions: 320 g/ha, 3 weeks
Text: as §2, §3

Alopecurus myosuroides = assay: Pre-emergence herbicidal effect; conditions: 3 weeks
Text: as §2, §3

Amaranthus retroflexus = assay: Pre-emergence herbicidal effect; conditions: 3 weeks
Text: as §2, §3

Echinochloa crus-galli [8] = assay: Pre-emergence herbicidal effect; conditions: 320 g/ha, 3 weeks
Text: as §2, §3

Setaria viridis = assay: Pre-emergence herbicidal effect; conditions: 3 weeks
Text: as §2, §3

Veronica persica = assay: Pre-emergence herbicidal effect; conditions: 3 weeks
Text: as §2, §3

CC(C)C1CC(=O)c2cnc(N[C@@H]3CCCc4ccccc43)nc2C1 (stereo partly shown) [2.102]
post-emergence efficacy ECHCG (Echinochloa crus-galli [1]): 100%
TRZAS herbicidal activity in percent ([2]; 80 g/ha): 0%
TRZAS herbicidal activity in percent ([2]; 320 g/ha): 0%
ZEAMX herbicidal activity in percent (Zea mays [3]; 80 g/ha): 0%
ZEAMX herbicidal activity in percent (Zea mays [3]; 320 g/ha): 0%
ORYSA herbicidal activity in percent (Oryza sativa [4]; 80 g/ha): 0%
ORYSA herbicidal activity in percent (Oryza sativa [4]; 320 g/ha): 0%
post-emergence efficacy TRZAS ([5]; 80 g/ha): 20%
post-emergence efficacy ZEAMX (Zea mays [6]; 80 g/ha): 0%
post-emergence efficacy ZEAMX (Zea mays [6]; 320 g/ha): 0%
post-emergence efficacy ORYSA (Oryza sativa [7]; 80 g/ha): 0%
post-emergence efficacy ORYSA (Oryza sativa [7]; 320 g/ha): 0%
MATIN herbicidal activity in percent (Matricaria inodora; 80 g/ha): 90%
MATIN herbicidal activity in percent (Matricaria inodora; 320 g/ha): 100%
POLCO herbicidal activity in percent (Polygonum convolvulus): 90%
VIOTR herbicidal activity in percent (Viola tricolor; 80 g/ha): 100%
VIOTR herbicidal activity in percent (Viola tricolor; 320 g/ha): 100%
STEME herbicidal activity in percent (Stellaria media; 80 g/ha): 100%
STEME herbicidal activity in percent (Stellaria media; 320 g/ha): 100%
LOLMU herbicidal activity in percent (Lolium multiflorum): 100%
ALOMY herbicidal activity in percent (Alopecurus myosuroides; 320 g/ha): 100%
AMARE herbicidal activity in percent (Amaranthus retroflexus; 80 g/ha): 80%
AMARE herbicidal activity in percent (Amaranthus retroflexus; 320 g/ha): 100%
ECHCG herbicidal activity in percent (Echinochloa crus-galli [8]): 100%
SETVI herbicidal activity in percent (Setaria viridis; 80 g/ha): 100%
SETVI herbicidal activity in percent (Setaria viridis; 320 g/ha): 100%
VERPE herbicidal activity in percent (Veronica persica; 80 g/ha): 100%
VERPE herbicidal activity in percent (Veronica persica; 320 g/ha): 100%

Cc1ccc2c(c1)[C@H](Nc1ncc3c(n1)CC(C(C)C)CC3=O)[C@@H](C)C2 (stereo partly shown) [2.104]
TRZAS herbicidal activity in percent ([2]; 80 g/ha): 0%
ZEAMX herbicidal activity in percent (Zea mays [3]; 80 g/ha): 0%
ZEAMX herbicidal activity in percent (Zea mays [3]; 320 g/ha): 0%
ORYSA herbicidal activity in percent (Oryza sativa [4]; 80 g/ha): 20%
ORYSA herbicidal activity in percent (Oryza sativa [4]; 320 g/ha): 20%
post-emergence efficacy TRZAS ([5]; 80 g/ha): 0%
post-emergence efficacy TRZAS ([5]; 320 g/ha): 0%
post-emergence efficacy ZEAMX (Zea mays [6]; 80 g/ha): 0%
post-emergence efficacy ZEAMX (Zea mays [6]; 320 g/ha): 0%
post-emergence efficacy ORYSA (Oryza sativa [7]; 80 g/ha): 0%
post-emergence efficacy ORYSA (Oryza sativa [7]; 320 g/ha): 0%
MATIN herbicidal activity in percent (Matricaria inodora; 80 g/ha): 80%
MATIN herbicidal activity in percent (Matricaria inodora; 320 g/ha): 100%
POLCO herbicidal activity in percent (Polygonum convolvulus): 100%
VIOTR herbicidal activity in percent (Viola tricolor; 80 g/ha): 90%
VIOTR herbicidal activity in percent (Viola tricolor; 320 g/ha): 100%
STEME herbicidal activity in percent (Stellaria media; 80 g/ha): 100%
STEME herbicidal activity in percent (Stellaria media; 320 g/ha): 100%
LOLMU herbicidal activity in percent (Lolium multiflorum): 90%
AMARE herbicidal activity in percent (Amaranthus retroflexus; 320 g/ha): 100%
SETVI herbicidal activity in percent (Setaria viridis; 320 g/ha): 100%
VERPE herbicidal activity in percent (Veronica persica; 80 g/ha): 100%
VERPE herbicidal activity in percent (Veronica persica; 320 g/ha): 100%

CC(=O)c1cnc(NC2CCOc3c(C)cccc32)nc1 (racemic) [1.8]
TRZAS herbicidal activity in percent ([2]; 80 g/ha): 0%
TRZAS herbicidal activity in percent ([2]; 320 g/ha): 0%
ZEAMX herbicidal activity in percent (Zea mays [3]; 80 g/ha): 0%
ZEAMX herbicidal activity in percent (Zea mays [3]; 320 g/ha): 0%
MATIN herbicidal activity in percent (Matricaria inodora; 320 g/ha): 100%
VIOTR herbicidal activity in percent (Viola tricolor; 320 g/ha): 100%
ALOMY herbicidal activity in percent (Alopecurus myosuroides; 80 g/ha): 0%
ALOMY herbicidal activity in percent (Alopecurus myosuroides; 320 g/ha): 0%
AMARE herbicidal activity in percent (Amaranthus retroflexus; 80 g/ha): 100%
AMARE herbicidal activity in percent (Amaranthus retroflexus; 320 g/ha): 100%
ECHCG herbicidal activity in percent (Echinochloa crus-galli [8]): 90%
SETVI herbicidal activity in percent (Setaria viridis; 320 g/ha): 80%
VERPE herbicidal activity in percent (Veronica persica; 320 g/ha): 100%

From US10183914B2 (BAYER CROPSCIENCE AKTIENGESELLSCHAFT, priority 2014, dated 2019)
